The record followed here is patent US7049289B1, “Labelled glutamine and lysine analogues” (Amersham PLC, priority 1998, dated 2006).

The star is where a group is joined. Adamantane1carbonyl = O=C(C12CC3CC(CC(C3)C1)C2)*

In assay [1] the target is T1, fibrin (in vitro human plasma clot) (Homo sapiens, UniProt P02671+P02675+P02679).
T1 construct: about 400 μl of human plasma containing the radiolabelled substrate; from tissue; host or cells: human plasma, clotted in vitro with added thrombin and calcium chloride
T1 sequence (P02671 20-644 isoform P02671-2 limits assumed): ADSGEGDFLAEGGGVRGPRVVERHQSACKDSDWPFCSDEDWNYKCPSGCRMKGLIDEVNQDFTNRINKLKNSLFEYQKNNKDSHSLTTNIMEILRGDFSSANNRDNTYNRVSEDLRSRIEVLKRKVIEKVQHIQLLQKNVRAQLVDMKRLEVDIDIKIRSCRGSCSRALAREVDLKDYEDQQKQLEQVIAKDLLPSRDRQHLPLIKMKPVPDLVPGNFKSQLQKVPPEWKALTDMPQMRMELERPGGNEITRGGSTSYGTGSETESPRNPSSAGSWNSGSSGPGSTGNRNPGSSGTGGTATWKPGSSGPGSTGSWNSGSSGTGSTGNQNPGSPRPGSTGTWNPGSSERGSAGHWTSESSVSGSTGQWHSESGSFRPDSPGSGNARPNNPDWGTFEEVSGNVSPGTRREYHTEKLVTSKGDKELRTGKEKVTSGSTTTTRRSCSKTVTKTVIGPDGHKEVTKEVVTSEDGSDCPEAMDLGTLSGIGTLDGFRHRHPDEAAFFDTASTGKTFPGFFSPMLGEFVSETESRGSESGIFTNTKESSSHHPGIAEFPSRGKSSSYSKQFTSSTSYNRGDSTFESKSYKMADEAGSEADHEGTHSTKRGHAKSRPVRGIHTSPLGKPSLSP
T1 sequence (P02675 45-491 limits assumed): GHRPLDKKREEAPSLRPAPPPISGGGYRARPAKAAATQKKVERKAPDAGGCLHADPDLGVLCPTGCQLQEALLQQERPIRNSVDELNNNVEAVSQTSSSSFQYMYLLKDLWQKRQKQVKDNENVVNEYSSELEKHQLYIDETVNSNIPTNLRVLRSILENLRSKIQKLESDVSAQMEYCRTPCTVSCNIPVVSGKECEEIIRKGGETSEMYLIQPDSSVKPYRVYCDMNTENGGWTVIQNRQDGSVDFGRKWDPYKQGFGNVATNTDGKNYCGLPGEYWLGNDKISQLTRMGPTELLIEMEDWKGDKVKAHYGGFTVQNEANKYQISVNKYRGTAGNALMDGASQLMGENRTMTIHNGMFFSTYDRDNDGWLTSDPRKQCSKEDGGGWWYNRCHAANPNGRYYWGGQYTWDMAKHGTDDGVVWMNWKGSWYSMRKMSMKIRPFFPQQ
T1 sequence (P02679 27-437 isoform P02679-2 limits assumed): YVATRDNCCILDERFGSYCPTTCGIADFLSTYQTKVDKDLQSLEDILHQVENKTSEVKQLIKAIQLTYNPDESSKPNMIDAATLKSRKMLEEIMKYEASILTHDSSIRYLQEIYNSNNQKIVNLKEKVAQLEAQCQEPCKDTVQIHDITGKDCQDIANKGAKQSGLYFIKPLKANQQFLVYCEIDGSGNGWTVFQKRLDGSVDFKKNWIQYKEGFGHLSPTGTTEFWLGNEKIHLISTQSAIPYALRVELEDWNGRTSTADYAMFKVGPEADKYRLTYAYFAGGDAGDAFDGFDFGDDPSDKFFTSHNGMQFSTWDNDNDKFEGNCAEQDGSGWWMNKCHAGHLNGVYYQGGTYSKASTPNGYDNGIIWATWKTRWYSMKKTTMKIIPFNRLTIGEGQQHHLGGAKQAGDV
Kind of assay: Incorporation into human plasma clots in vitro. Conditions: for % specific uptake: % retained (with thrombin) - % retained (no thrombin); for % retained (no thrombin): control without thrombin and calcium chloride (non-specific binding); for % retained (with thrombin): human plasma clot, 60 minutes, ca. 20° C. It counts as biochemical. The protocol: Incorporation of radiolabelled substrates into fibrin was investigated by induction of an in vitro human plasma clot in the following manner. To a siliconised 5 ml glass vial was added, (a) 800 μl of Tris(hydroxymethyl)aminomethane buffered saline pH 7.5 containing calcium chloride (50 mM Tris, 150 mM sodium chloride, 4 mM calcium chloride.), (b) about 40 μl of physiological salt solution containing 100 units of thrombin per ml, (c) about 400 μl of human plasma containing the radiolabelled substrate at a concentration of typically 10 kBq/ml. To aid induction of clot a roughened glass rod was added to the reaction vial. Control vials were prepared similarly but with the omission of thrombin and calcium chloride.
After incubation of the test solution at ambient laboratory temperature (ca. 20° C.) for 60 minutes the reaction was discontinued with the addition of about 400 μl of a cold solution of 33.5 mM ethylenediaminetetra-acetic acid disodium salt. Clots were separated from serum by vacuum filtration onto […] nitrocellulose filters (pre-soaked in 1.5% BSA/tris(hydroxymethyl)aminoethae buffered saline pH 7.5 containing 0.1% Tween 20) and washed with about 2×10 ml of tris(hydroxymethyl)aminomethane buffered saline pH 7.5 containing Tween 20 to a final concentration of 0.1% v/v. The proportion of total radioactivity was calculated by counting in suitable detection apparatus.
The fraction of radioactivity retained on the filter, after subtraction of the non-specific binding determined from the control, is a measure of incorporation into the filtered clots.

Assay [2] in a line: Incorporation into clots induced in a rat model (rat inferior vena cava model). It counts as in vivo, rat (Male Wistar). Conditions: for % id/g (clot) / Rel. Conc. (cpm/g of clot by dose/g animal): sacrificed after 60 min. The protocol: The rats (Male Wistar, 250–350 g) were anaesthetised with 15% urethane. After laparotomy, the vena cava was isolated and freed of surrounding fat tissue. […] The compounds were injected 5 min (fresh clot) and 60 min (aged clot) post-induction. After 60 min the animals were sacrificed and the clot removed, weighed and counted. Other tissues e.g. blood, lung, heart, were also dissected and counted. The uptake of tracer into the clot was determined as the relative concentration (cpm/g of clot by dose/g animal) and clot to background tissue.

[3] abbreviates: Aged Clots: injected 60 min post-induction.
[4] abbreviates: Fresh Clots: injected 5 min post-induction.

Turning to “(CF3)2(C6H3)-NQEQVSPYTLLKG-Pn216 ({(CF3)2(C6H3)}-NQEQVSPYTLLKG-Pn216; also: 99mTc complex) [^99mTc-Cmpd 10]”, in assay [1], the “% specific uptake” value turned out to be 65.7%, the “% retained (no thrombin)” value worked out at 0.2% and the “% retained (with thrombin)” value worked out at 65.9%. Also, in assay [2] (Aged Clots), the Clot/blood is reported as 6, the Clot/heart is recorded as 16, the Clot/liver was 5 and the Clot/lung stood at 6. Moreover, in assay [2] (setting [3]), the “% id/g (clot)” value amounted to 2.9 ± 1.4 % id/g and the “Rel. Conc. (cpm/g of clot by dose/g animal)” value is on record as 6.3 ± 2.7. In assay [2] (Fresh Clots), this substance yielded a Clot/blood of 4, a Clot/heart of 10, a Clot/liver of 5 and a Clot/lung of 5. Further, in assay [2] (setting [4]), the “% id/g (clot)” value came out at 2.9 ± 0.5 % id/g and the “Rel. Conc. (cpm/g of clot by dose/g animal)” value worked out at 6.5 ± 1.2.
On to “Adamantoyl-NQEQVSPYTLLKG-Pn216 (Adamantane1carbonyl-NQEQVSPYTLLKG-Pn216; also: 99mTc complex) [^99mTc-Cmpd 11]”, for which, in assay [1], the “% specific uptake” value came out at 66.9%, the “% retained (no thrombin)” value is reported as 1.2% and the “% retained (with thrombin)” value came out at 68.1%. In assay [2] (Aged Clots), this substance displayed a Clot/blood of 5, a Clot/heart of 13, a Clot/liver of 4 and a Clot/lung of 6. In addition, in assay [2] (setting [3]), the “% id/g (clot)” value was determined as 0.4 ± 0.3 % id/g and the “Rel. Conc. (cpm/g of clot by dose/g animal)” value worked out at 1.2 ± 0.8. In assay [2] (Fresh Clots), the Clot/blood stood at 10, the Clot/heart worked out at 24, the Clot/liver stood at 11 and the Clot/lung stood at 11. For the same substance, in assay [2] (setting [4]), the “% id/g (clot)” value came to 1.1 ± 0.4 % id/g and the “Rel. Conc. (cpm/g of clot by dose/g animal)” value was 3.3 ± 1.1.
Consider “Ac-NQEQ(D-V)(D-S)P(D-Y)TLL(D-K)G-Pn216 [^99mTc-Cmpd 31]”, for which, in assay [1], the “% specific uptake” value turned out to be 7.6%, the “% retained (no thrombin)” value came out at 0.1% and the “% retained (with thrombin)” value is 7.7%. Further, in assay [1] (in vitro clot), the “in vitro clot uptake (in words)” value is on record as “significant reduction in uptake”. For the same substance, in assay [2] (Aged Clots), the Clot/blood was 0.6, the Clot/heart came to 9, the Clot/liver turned out to be 2 and the Clot/lung was found to be 4. In assay [2] (setting [3]), the “% id/g (clot)” value was found to be 0.2 ± 0.1 % id/g and the “Rel. Conc. (cpm/g of clot by dose/g animal)” value came to 0.6 ± 0.2. Further, in assay [2] (Fresh Clots), the Clot/blood is given as 0.6, the Clot/heart was 2, the Clot/liver turned out to be 3 and the Clot/lung was 1. In addition, in assay [2] (setting [4]), the “% id/g (clot)” value was found to be 0.3 ± 0.2 % id/g and the “Rel. Conc. (cpm/g of clot by dose/g animal)” value was 0.9 ± 0.6.
On to “Ac-NQEAVSPYTLLKG-Pn216 (also: 99mTc complex) [^99mTc-Cmpd 13]”, for which, in assay [1], the “% specific uptake” value amounted to 56.8%, the “% retained (no thrombin)” value was 0.2% and the “% retained (with thrombin)” value was found to be 57.0%. For the same substance, in assay [2] (Aged Clots), the Clot/blood stood at 6, the Clot/heart is 29, the Clot/liver is recorded as 19 and the Clot/lung is listed as 9. Moreover, in assay [2] (setting [3]), the “% id/g (clot)” value is listed as 4.5 ± 1.5 % id/g and the “Rel. Conc. (cpm/g of clot by dose/g animal)” value is recorded as 10.4 ± 3.0. In assay [2] (Fresh Clots), the Clot/blood is 7, the Clot/heart was found to be 18, the Clot/liver turned out to be 18 and the Clot/lung is on record as 8. Also, in assay [2] (setting [4]), the “% id/g (clot)” value was 3.4 ± 0.7 % id/g and the “Rel. Conc. (cpm/g of clot by dose/g animal)” value was 7.9 ± 1.6.
Turning to “Ac-NQEQVSP(I2-Y)TLLKG-Pn216 [^99mTc-Cmpd 23]”, in assay [1], the “% specific uptake” value came to 63.7%, the “% retained (no thrombin)” value was 0.1% and the “% retained (with thrombin)” value is on record as 63.8%. In assay [2] (Aged Clots), this substance yielded a Clot/blood of 13, a Clot/heart of 1, a Clot/liver of 1 and a Clot/lung of 1. Further, in assay [2] (setting [3]), the “% id/g (clot)” value was 7.5 ± 2.5 % id/g and the “Rel. Conc. (cpm/g of clot by dose/g animal)” value worked out at 17.6 ± 4.6. Also, in assay [2] (Fresh Clots), the Clot/blood is on record as 6, the Clot/heart worked out at 17, the Clot/liver was 21 and the Clot/lung came out at 6. For the same substance, in assay [2] (setting [4]), the “% id/g (clot)” value was determined as 7.6 ± 1.8 % id/g and the “Rel. Conc. (cpm/g of clot by dose/g animal)” value is 18.2 ± 4.1.
For “Ac-NQEQVSP(pBr-F)TLLKG-Pn216 [^99mTc-Cmpd 21]”, in assay [1], the “% specific uptake” value came out at 60.1%, the “% retained (no thrombin)” value was determined as 0.5% and the “% retained (with thrombin)” value is given as 60.6%. In assay [2] (Aged Clots), this substance yielded a Clot/blood of 31, a Clot/heart of 32, a Clot/liver of 31 and a Clot/lung of 13. Besides, in assay [2] (setting [3]), the “% id/g (clot)” value stood at 2.7 ± 2.3 % id/g and the “Rel. Conc. (cpm/g of clot by dose/g animal)” value is listed as 8.5 ± 6.8. In assay [2] (Fresh Clots), this substance displayed a Clot/blood of 11, a Clot/heart of 28, a Clot/liver of 13 and a Clot/lung of 16. For the same substance, in assay [2] (setting [4]), the “% id/g (clot)” value was 2.3 ± 1.3 % id/g and the “Rel. Conc. (cpm/g of clot by dose/g animal)” value is 7.4 ± 4.0.
For “Fmoc-NQEQVSP(I-Y)TLLKG-Pn216 [^99mTc-Cmpd 26]”, in assay [1], the “% specific uptake” value is 55.1%, the “% retained (no thrombin)” value was 8.2% and the “% retained (with thrombin)” value was found to be 63.3%. In assay [2] (Aged Clots), the Clot/blood is recorded as 7, the Clot/heart is given as 31, the Clot/liver amounted to 54 and the Clot/lung came out at 12. In assay [2] (setting [3]), the “% id/g (clot)” value is 4.0 ± 0.9 % id/g and the “Rel. Conc. (cpm/g of clot by dose/g animal)” value is given as 12.9 ± 3.5. In addition, in assay [2] (Fresh Clots), the Clot/blood amounted to 16, the Clot/heart is recorded as 38, the Clot/liver was found to be 16 and the Clot/lung is on record as 11. Further, in assay [2] (setting [4]), the “% id/g (clot)” value worked out at 14.1 ± 10 % id/g and the “Rel. Conc. (cpm/g of clot by dose/g animal)” value amounted to 41.4 ± 28.
